Experimental data: patent US4275164A, “Process and nutrient medium for growing microorganism” (priority 1979, dated 1981)

Key:
[1] = test system: creatinine iminohydrolase; assay: Creatinine iminohydrolase activity, Small-scale Enzyme Production (Procedure 2; GDH assay); assay type: cell-based, ATCC 31546 (tentatively Flavobacterium filamentosum); conditions: for creatinine iminohydrolase yield of microbial cells (in words) / growth of the culture and enzyme production (in words): carbon source; for growth of the culture and enzyme production (in words): Example 2; for Optimum Concentration (carbon source): concentration which produced the highest creatinine iminohydrolase activity, Table II; for optimum concentration: fumaric acid as carbon source and creatinine varied simultaneously, Example 3
Procedure: (§1) A fresh sample of culture grown for two days on Medium No. 1 slants as described in Procedure 1 above was obtained. From this slant, a loopful of culture was inoculated into 25 ml of a microbial growth medium of the type employed in the present invention contained in a 250 ml Erlenmeyer flask. The microbial growth medium employed consisted of Tryp-Soy Broth, referred to hereinabove. Following inoculation of the culture into the Erlenmeyer flask, the flask was shaken at 200 rpm at 30° C. for eight hours to produce good cellular growth without lysis of the microbial cells. Thereafter, a sample of the contents of the flask was microscopically inspected for culture purity and then aseptically centrifuged at 15,000 xg in a refrigerated centrifuge (available from DuPont Instruments, Newton, CT) for 15 minutes to separate the cells from the Tryp-Soy Broth. The supernatant containing the Tryp-Soy Broth was discarded, and the solid material containing the precipitated microbial cells was then re-suspendedin a volume of sterile distilled water equal to that present before centrifugation. 2 ml of this latter suspension was then used as an inoculum for a 250 ml Erlenmeyer flask containing 25 ml of a production medium to obtain further cell growth and to promote enzyme production by the microorganism. The specific composition of the production medium was varied as described in the following examples. However, in each case, once the microorganism was transferred as a 2-ml inoculum to the flask containing the particular production medium of interest, the flask was shaken at 30° C., 200 rpm for 10 hours. Thereafter, samples of the culture were withdrawn, diluted and dry-cell weight was determined. In addition, a 2.5 ml aliquot of the culture was centrifuged at 15,000 xg in a refrigerated centrifuge to separate the cells from the production medium. The supernatant containing the production medium was discarded. The precipitated cells were disrupted as in Procedure 4 below, and enzyme activity was assayed as described in Procedure 5 below.
(§2) 0.2 ml of an enzyme solution and 0.4 ml of cell suspension were added to 1.4 ml of 0.05 M tris(hydroxymethyl)aminomethane (tris) buffer, pH 8.5, and 10^-3 M (ethylenedinitrilo)tetraacetic acid, dipotassium salt (K2 EDTA). The aforementioned enzyme solution contained per ml of deionized water: 2.5 mg lysozyme, 1 mg bovine pancreatic deoxyribonuclease, and 1 mg bovine pancreatic ribonuclease. The amount of cell suspension was adjusted to give a final optical density of about 1.0, and the final volume was made to 2.0 ml with tris buffer. The suspension was shaken in a water bath at 37° C. for 20 minutes. The cell debris was removed by centrifugation at 27,000 xg in a refrigerated centrifuge, and the supernatant was assayed for enzyme activity as described in Procedure 5 below.
(§3) To determine the creatinine iminohydrolase activity described in the Examples, a L-glutamic dehydrogenase, "GDH", assay method was employed. In the GDH assay method, production of ammonia from creatinine, which represents the activity of a creatinine iminohydrolase enzyme preparation,is measured using NADPH (nicotinamide-adenine dinucleotride phosphate, reduced form) in a GDH-catalyzed reaction as follows:
Creatinine is hydrolyzed to ammonia via the unknown activity of a creatinine iminohydrolase sample, and the resultant ammonia reacts with the reagent α-ketoglutaric acid in the presence of GDH as catalyst to produce glutamic acid. The latter reaction catalyzed by GDH uses the NADPH oxidation reaction (NADPH→NADP), the disappearance of the NADPH absorption peak at 340 nm providing the spectroscopically detectable means for monitoring the assay. That is, the rate of NADPH disappearance measures the rate of glutamic acid production which, in turn, measures the rate of ammonia production.

[2] = test system: creatinine iminohydrolase; assay: Creatinine iminohydrolase activity, Large-scale Enzyme Production (Procedure 3; GDH assay); assay type: cell-based, ATCC 31546 (tentatively Flavobacterium filamentosum); conditions: Procedure No. 3; glucose 1.0 wt% added, or control 0.0 wt%
Procedure: as §2
as §3, with “follows: […]” for “follows:”

microorganism ATCC 31546 [3] = assay: Dry cell weight, Small-scale Enzyme Production (Procedure 2); assay type: cell-based, tentatively Flavobacterium filamentosum (ATCC 31546); conditions: Procedure No. 2; glucose 1.0 wt% added, or control 0.0 wt%
Procedure: as §1, with “The specific composition of the production medium was varied as described in the following examples. However, in each case, once the microorganism was transferred as a 2-ml inoculum to the flask containing the particular production medium of interest, the flask was shaken at 30° C., 200 rpm for 10 hours.” left out, “In addition, a 2.5 ml aliquot of the culture was centrifuged at 15,000 xg in a refrigerated centrifuge to separate the cells from the production medium. The supernatant containing the production medium was discarded. The precipitated cells were disrupted as in Procedure 4 below, and enzyme activity was assayed as described in Procedure 5 below.” left out

microorganism ATCC 31546 [4] = assay: Dry cell weight / growth, Large-scale Enzyme Production (Procedure 3); assay type: cell-based, tentatively Flavobacterium filamentosum (ATCC 31546); conditions: Procedure No. 3; glucose 1.0 wt% added, or control 0.0 wt%
Procedure: Large-scale enzyme production was carried out using a 150-liter fermentor as follows:
First, following the same steps described in Procedure 2 above, a fresh sample of the microorganism ATCC 31546 culture which had been grown for two days on Medium No. 1 slants was transferred into 25 ml of microbial growth medium contained in a 250-ml Erlenmeyer flask. The microbial growth medium was the same as that described in Procedure 2 above. The first stage of inoculum growth in the microbial growth medium was carried out by shaking the flask at 200 rpm, 25° C. for 12 hours. A sample of the contents of the flask was thereafter microscopically inspected for culture purity. Thereafter, in the second stage of inoculum growth in the microbial growth medium, the contents of two 250-ml Erlenmeyer flasks containing first-stage culture were transferred aseptically to a 14-liter fermentor containing 10 liters of sterilized microbial growth medium having the composition described in Procedure 2 above and also containing 0.01 wt% of a polyglycol anti-foam agent sold under the tradename Polyglycol P-2000 by Dow Chemicals, Midland, MI. […] At this point, a sufficient quantity of cells was available to form an inoculum for the 150-liter fermentor. […] Dissolved oxygen concentration and pH were monitored continuously throughout the 12-hour period. […]

[5] = carbon source at optimum concentration, control 1.0 wt% fumaric acid

SMILES | creatinine iminohydrolase yield of microbial cells (in words) [1] | growth of the culture and enzyme production (in words) [1] | Optimum Concentration (carbon source) [1] [Wt. %] | Creatinine Iminohydrolase Activity % of Control [1, 5] | other results
CC(=O)O [Acetic Acid] | yielding only small amounts of creatinine iminohydrolase | did not support the growth of the culture or produce a detectable amount of enzyme | 0.1 |  | 
C[C@H](N)C(=O)O [Alanine] |  |  | 1.0 | 35 % of Control | 
N[C@@H](CC(=O)O)C(=O)O [Aspartic Acid] | yielding only small amounts of creatinine iminohydrolase | the culture grew well but these sources repressed enzyme synthesis | 1.0 |  | 
O=C(O)CC(O)(CC(=O)O)C(=O)O [Citric Acid] |  | acceptable levels of microbial growth and enzyme production | 1.0 | 71 % of Control | 
CN1CC(=O)NC1=N [Creatinine] |  |  |  |  | optimum concentration [1]: 0.5%
O=C(O)/C=C/C(=O)O [Fumaric Acid, Fumaric acid] |  | good enzyme production and good growth of the microorganism | 1.0 | 100 % of Control | optimum concentration [1]: 1.0%
OC[C@H]1OC(O)[C@H](O)[C@@H](O)[C@@H]1O (stereo partly drawn) [Glucose] |  | acceptable levels of microbial growth and enzyme production | 1.0 | 51 % of Control | Creatinine Iminohydrolase Activity [2]: 720 U/liter; Creatinine Iminohydrolase Activity % of Control [2]: 134 % of Control; Dry Cell Weight (microorganism ATCC 31546 [3]): 3.31 g/L; Creatinine Iminohydrolase Activity % of Control ([1]; Procedure No. 2, glucose 1.0 wt% added, or control 0.0 wt%): 135 % of Control; Dry Cell Weight (microorganism ATCC 31546 [4]): 3.92 g/L
N[C@@H](CCC(=O)O)C(=O)O [Glutamic Acid] | yielding only small amounts of creatinine iminohydrolase | the culture grew well but these sources repressed enzyme synthesis | 1.0 |  | 
OCC(O)CO [Glycerol] | yielding only small amounts of creatinine iminohydrolase | did not support the growth of the culture or produce a detectable amount of enzyme | 0.5 |  | 
NCC(=O)O [Glycine] | yielding only small amounts of creatinine iminohydrolase | did not support the growth of the culture or produce a detectable amount of enzyme | 0.5 |  | 
O=C(O)CCC(=O)C(=O)O [Ketoglutaric Acid, α-Ketoglutaric acid] |  | good growth of the microorganism and produced more than twice as much enzyme as did the fumaric acid control | 1.0 | 205 % of Control | 
CC(O)C(=O)O (stereo not drawn) [Lactic Acid] |  | acceptable levels of microbial growth and enzyme production | 0.5 | 8 % of Control | 
O=C(O)CC(O)C(=O)O (stereo not drawn) [Malic Acid] |  | acceptable levels of microbial growth and enzyme production | 1.0 | 100 % of Control | 
CC(=O)C(=O)O [Pyruvic Acid] |  | supported good enzyme production although somewhat lower growth of the microorganism was obtained | 0.5 | 105 % of Control | 
O=C(O)CCC(=O)O [Succinic Acid] |  | acceptable levels of microbial growth and enzyme production | 1.0 | 49 % of Control | 
OC[C@H]1O[C@@](CO)(O[C@H]2O[C@H](CO)[C@@H](O)[C@H](O)[C@H]2O)[C@@H](O)[C@@H]1O [Sucrose] | yielding only small amounts of creatinine iminohydrolase | did not support the growth of the culture or produce a detectable amount of enzyme | 0.5 |  | 
